Laboratory results as given in ChEMBL document CHEMBL3045835, “Comparative study of conventional and microwave-assisted synthesis of some Schiff bases and their potential as antimicrobial agents” (2012).
Values after ≈ are worked out from the molar mass of the structure shown.

Key:
Format in all cases: functional
Pseudomonas aeruginosa [1] = experiment: Antibacterial activity against Pseudomonas aeruginosa MTCC 424 at 200 ug/ml after 18 hr by cup-plate method; details: MTCC 424, 18 h, read-out: DIZ
Micrococcus luteus [2] = experiment: Antibacterial activity against Micrococcus luteus MTCC 1538 at 200 ug/ml after 18 hr by cup-plate method; details: MTCC 1538, 18 h, read-out: DIZ
Penicillium chrysogenum [3] = experiment: Antifungal activity against Penicillium chrysogenum MTCC 161 at 200 ug/ml after 18 hr by cup-plate method; details: MTCC 161, 18 h, read-out: DIZ
Pseudomonas fluorescens [4] = experiment: Antibacterial activity against Pseudomonas fluorescens MTCC 2421 at 100 ug/ml after 18 hr by cup-plate method; details: MTCC 2421, 18 h, read-out: DIZ
Aspergillus niger [5] = experiment: Antifungal activity against Aspergillus niger MTCC 2546 at 1500 ug/ml after 18 hr by cup-plate method; details: MTCC 2546, 18 h, read-out: DIZ
Escherichia coli [6] = experiment: Antibacterial activity against Escherichia coli MTCC 1573 after 24 hr by broth dilution method; details: MTCC 1573, 24 h
Micrococcus luteus [7] = experiment: Antibacterial activity against Micrococcus luteus MTCC 1538 after 24 hr by broth dilution method; details: MTCC 1538, 24 h
Bacillus pumilus [8] = experiment: Antibacterial activity against Bacillus pumilus MTCC 1456 at 1500 ug/ml after 18 hr by cup-plate method; details: MTCC 1456, 18 h, read-out: DIZ
Penicillium chrysogenum [9] = experiment: Antifungal activity against Penicillium chrysogenum MTCC 161 at 500 ug/ml after 18 hr by cup-plate method; details: MTCC 161, 18 h, read-out: DIZ
Staphylococcus aureus [10] = experiment: Antibacterial activity against Staphylococcus aureus MTCC 1430 at 200 ug/ml after 18 hr by cup-plate method; details: MTCC 1430, 18 h, read-out: DIZ
Pseudomonas aeruginosa [11] = experiment: Antibacterial activity against Pseudomonas aeruginosa MTCC 424 at 100 ug/ml after 18 hr by cup-plate method; details: MTCC 424, 18 h, read-out: DIZ
Staphylococcus aureus [12] = experiment: Antibacterial activity against Staphylococcus aureus MTCC 1430 after 24 hr by broth dilution method; details: MTCC 1430, 24 h
Bacillus pumilus [13] = experiment: Antibacterial activity against Bacillus pumilus MTCC 1456 at 200 ug/ml after 18 hr by cup-plate method; details: MTCC 1456, 18 h, read-out: DIZ
Bacillus pumilus [14] = experiment: Antibacterial activity against Bacillus pumilus MTCC 1456 at 1000 ug/ml after 18 hr by cup-plate method; details: MTCC 1456, 18 h, read-out: DIZ
Aspergillus niger [15] = experiment: Antifungal activity against Aspergillus niger MTCC 2546 at 500 ug/ml after 18 hr by cup-plate method; details: MTCC 2546, 18 h, read-out: DIZ
Bacillus pumilus [16] = experiment: Antibacterial activity against Bacillus pumilus MTCC 1456 at 100 ug/ml after 18 hr by cup-plate method; details: MTCC 1456, 18 h, read-out: DIZ
Bacillus subtilis [17] = experiment: Antibacterial activity against Bacillus subtilis MTCC 441 at 100 ug/ml after 18 hr by cup plate method; details: MTCC 441, 18 h, read-out: DIZ
Pseudomonas fluorescens [18] = experiment: Antibacterial activity against Pseudomonas fluorescens MTCC 2421 at 1000 ug/ml after 18 hr by cup-plate method; details: MTCC 2421, 18 h, read-out: DIZ
Escherichia coli [19] = experiment: Antibacterial activity against Escherichia coli MTCC 1573 at 1500 ug/ml after 18 hr by cup-plate method; details: MTCC 1573, 18 h, read-out: DIZ
Escherichia coli [20] = experiment: Antibacterial activity against Escherichia coli MTCC 1573 at 200 ug/ml after 18 hr by cup-plate method; details: MTCC 1573, 18 h, read-out: DIZ
Bacillus subtilis [21] = experiment: Antibacterial activity against Bacillus subtilis MTCC 441 at 1000 ug/ml after 18 hr by cup plate method; details: MTCC 441, 18 h, read-out: DIZ
Pseudomonas fluorescens [22] = experiment: Antibacterial activity against Pseudomonas fluorescens MTCC 2421 at 500 ug/ml after 18 hr by cup-plate method; details: MTCC 2421, 18 h, read-out: DIZ
Penicillium chrysogenum [23] = experiment: Antifungal activity against Penicillium chrysogenum MTCC 161 at 100 ug/ml after 18 hr by cup-plate method; details: MTCC 161, 18 h, read-out: DIZ
Pseudomonas aeruginosa [24] = experiment: Antibacterial activity against Pseudomonas aeruginosa MTCC 424 at 1000 ug/ml after 18 hr by cup-plate method; details: MTCC 424, 18 h, read-out: DIZ
Pseudomonas fluorescens [25] = experiment: Antibacterial activity against Pseudomonas fluorescens MTCC 2421 at 1500 ug/ml after 18 hr by cup-plate method; details: MTCC 2421, 18 h, read-out: DIZ
Aspergillus niger [26] = experiment: Antifungal activity against Aspergillus niger MTCC 2546 at 1000 ug/ml after 18 hr by cup-plate method; details: MTCC 2546, 18 h, read-out: DIZ
Penicillium chrysogenum [27] = experiment: Antifungal activity against Penicillium chrysogenum MTCC 161 at 1500 ug/ml after 18 hr by cup-plate method; details: MTCC 161, 18 h, read-out: DIZ

For `C(=N\c1nc[nH]n1)/c1ccco1`, which zone of inhibition at 200 µg/mL (Pseudomonas aeruginosa [1]) is on record?
Its zone of inhibition at 200 µg/mL is 11 mm.

And the zone of inhibition at 200 µg/mL (Micrococcus luteus [2])?
Its zone of inhibition at 200 µg/mL is 16 mm.

What about the zone of inhibition at 200 µg/mL (Penicillium chrysogenum [3]) of the same molecule?
Its zone of inhibition at 200 µg/mL is 15 mm.

What about the zone of inhibition at 100 µg/mL (Pseudomonas fluorescens [4]) of the same molecule?
Its zone of inhibition at 100 µg/mL is 13 mm.

What about the zone of inhibition at 1500 µg/mL (Aspergillus niger [5]) of the same molecule?
Its zone of inhibition at 1500 µg/mL is 23 mm.

What about the MIC (Escherichia coli [6]) of the same molecule?
The MIC was 400 µg/mL (≈ 2470 µM).

And the MIC (Micrococcus luteus [7])?
The MIC was 300 µg/mL (≈ 1850 µM).

And the zone of inhibition at 1500 µg/mL (Bacillus pumilus [8])?
Its zone of inhibition at 1500 µg/mL is 20 mm.

And the zone of inhibition at 500 µg/mL (Penicillium chrysogenum [9])?
Its zone of inhibition at 500 µg/mL is 17 mm.

And the zone of inhibition at 200 µg/mL (Staphylococcus aureus [10])?
The zone of inhibition at 200 µg/mL was 12 mm.

And the zone of inhibition at 100 µg/mL (Pseudomonas aeruginosa [11])?
Its zone of inhibition at 100 µg/mL is 10 mm.

What about the MIC (Staphylococcus aureus [12]) of the same molecule?
The MIC was 600 µg/mL (≈ 3700 µM).

What about the zone of inhibition at 200 µg/mL (Bacillus pumilus [13]) of the same molecule?
The zone of inhibition at 200 µg/mL was 15 mm.

And the zone of inhibition at 1000 µg/mL (Bacillus pumilus [14])?
The zone of inhibition at 1000 µg/mL was 17 mm.

And the zone of inhibition at 500 µg/mL (Aspergillus niger [15])?
The zone of inhibition at 500 µg/mL was 18 mm.

And the zone of inhibition at 100 µg/mL (Bacillus pumilus [16])?
Its zone of inhibition at 100 µg/mL is 11 mm.

What about the zone of inhibition at 100 µg/mL (Bacillus subtilis [17]) of the same molecule?
The zone of inhibition at 100 µg/mL was 11 mm.

What about the zone of inhibition at 1000 µg/mL (Pseudomonas fluorescens [18]) of the same molecule?
The zone of inhibition at 1000 µg/mL was 20 mm.

What about the zone of inhibition at 1500 µg/mL (Escherichia coli [19]) of the same molecule?
Its zone of inhibition at 1500 µg/mL is 25 mm.

What about the zone of inhibition at 200 µg/mL (Escherichia coli [20]) of the same molecule?
The zone of inhibition at 200 µg/mL was 13 mm.

And the zone of inhibition at 1000 µg/mL (Bacillus subtilis [21])?
The zone of inhibition at 1000 µg/mL was 17 mm.

And the zone of inhibition at 500 µg/mL (Pseudomonas fluorescens [22])?
Its zone of inhibition at 500 µg/mL is 18 mm.

What about the zone of inhibition at 100 µg/mL (Penicillium chrysogenum [23]) of the same molecule?
Its zone of inhibition at 100 µg/mL is 11 mm.

And the zone of inhibition at 1000 µg/mL (Pseudomonas aeruginosa [24])?
Its zone of inhibition at 1000 µg/mL is 15 mm.

What about the zone of inhibition at 1500 µg/mL (Pseudomonas fluorescens [25]) of the same molecule?
Its zone of inhibition at 1500 µg/mL is 23 mm.

What about the zone of inhibition at 1000 µg/mL (Aspergillus niger [26]) of the same molecule?
The zone of inhibition at 1000 µg/mL was 19 mm.

What about the zone of inhibition at 1500 µg/mL (Penicillium chrysogenum [27]) of the same molecule?
Its zone of inhibition at 1500 µg/mL is 21 mm.
